In PMC12369479 (Journal of Experimental Botany, 2025):
“And” between values parts separate entries of the source, which are not always exact repeats. Identical values can stand only once. Like-named read-outs stand apart in the source and are kept apart here.

Columns and labels:
PpADK2 = PpADK2 (Physcomitrium patens, UniProt A9RF27); experiment: ADK activity, coupled reaction with PK and LDH; settings: 100 µM substrate, 10 mM ATP, pH 7.5, 30 °C
Method: (§1) Substrate analogs were purchased from Sigma-Aldrich (www.sigmaaldrich.com). The ADK activity was measured spectrophotometrically on an Agilent 8453 UV-Vis spectrophotometer (www.agilent.com) at 30 °C using a coupled reaction with pyruvate kinase (PK) and lactate dehydrogenase (LDH) (www.sigmaaldrich.com) ([Blondin et al., 1994]). In this assay, PK converts ADP produced by ADK and phosphoenolpyruvate (PEP) to pyruvate. Subsequently, LDH then converts pyruvate to lactate using the coenzyme NADH, with the conversion monitored at 340 nm. The reaction was conducted in 50 mM Tris–HCl buffer at pH 7.5, containing 50 mM KCl, 6 mM MgCl2, 300 µM PEP, 200 µM NADH, 10 mM ATP, 2 U of PK, and 2.5 U of LDH, using various nucleoside substrates. Kinetic constants were determined using GraphPad Prism 8.0 software (www.graphpad.com). Each measurement was performed six times using repetitive purified enzymes. The activities of all five ADKs were also measured by HPLC ([Moffatt et al., 1991]). The reaction mixture comprised 50 mM Tris–HCl pH 7.5, 5 mM MgCl2, 0.5 mM DTT, 30 mM NaF, 5 mM ATP, 40 µM substrate, and 2–150 ng of purified ADK, depending on the isoform. The reaction was incubated at 30 °C for up to 1 h. […] Similarly, the conversion of cytokinin ribosides to monophosphates was followed on a LiChrosphere 60 RP-Select B (5 µm) LiChroCART column 125-4 column equilibrated with 10 mM triethylamine at pH 5.4 plus 10% methanol, and stepwise eluted with 100% methanol.

ZmADK1 = ZmADK1 (Zea mays, UniProt K7UH13); experiment: ADK activity, coupled reaction with PK and LDH; settings: 100 µM substrate, 10 mM ATP, pH 7.5, 30 °C
ZmADK1, sequence (K7UH13 entry or part of it): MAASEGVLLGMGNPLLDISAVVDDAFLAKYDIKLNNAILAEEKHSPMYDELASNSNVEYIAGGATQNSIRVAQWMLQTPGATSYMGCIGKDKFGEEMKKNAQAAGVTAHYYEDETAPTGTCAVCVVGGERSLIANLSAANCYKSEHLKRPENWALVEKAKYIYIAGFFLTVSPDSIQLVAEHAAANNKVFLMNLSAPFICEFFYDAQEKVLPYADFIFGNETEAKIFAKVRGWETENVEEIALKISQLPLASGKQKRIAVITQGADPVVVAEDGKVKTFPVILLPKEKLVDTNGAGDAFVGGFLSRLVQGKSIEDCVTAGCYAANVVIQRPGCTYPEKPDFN
Method: as §1

ZmADK2 [1] = molecular target: T1, ZmADK2 (Zea mays, UniProt B4FFH8, T4S); experiment: ADK activity, coupled reaction with PK and LDH; type: biochemical; settings: ZmADK2, 10 mM ATP, pH 7.5, 30 °C; for Specific activity: 100 µM substrate
T1 sequence (B4FFH8 1-342 T4S): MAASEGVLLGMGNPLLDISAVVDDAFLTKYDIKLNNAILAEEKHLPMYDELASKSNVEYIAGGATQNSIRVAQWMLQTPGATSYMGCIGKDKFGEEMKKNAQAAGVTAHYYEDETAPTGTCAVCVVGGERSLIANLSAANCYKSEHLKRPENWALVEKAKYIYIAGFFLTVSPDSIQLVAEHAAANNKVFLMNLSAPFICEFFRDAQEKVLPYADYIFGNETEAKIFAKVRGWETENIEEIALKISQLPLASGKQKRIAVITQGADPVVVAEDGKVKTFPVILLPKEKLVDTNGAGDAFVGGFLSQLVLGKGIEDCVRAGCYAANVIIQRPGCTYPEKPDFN
Method: as §1

ZmADK3 = ZmADK3 (Zea mays, UniProt A0A1D6E5Z5); experiment: ADK activity, coupled reaction with PK and LDH; type: biochemical; settings: ZmADK3; 100 µM substrate; 10 mM ATP; pH 7.5; 30 °C
ZmADK3, sequence (A0A1D6E5Z5 entry or part of it): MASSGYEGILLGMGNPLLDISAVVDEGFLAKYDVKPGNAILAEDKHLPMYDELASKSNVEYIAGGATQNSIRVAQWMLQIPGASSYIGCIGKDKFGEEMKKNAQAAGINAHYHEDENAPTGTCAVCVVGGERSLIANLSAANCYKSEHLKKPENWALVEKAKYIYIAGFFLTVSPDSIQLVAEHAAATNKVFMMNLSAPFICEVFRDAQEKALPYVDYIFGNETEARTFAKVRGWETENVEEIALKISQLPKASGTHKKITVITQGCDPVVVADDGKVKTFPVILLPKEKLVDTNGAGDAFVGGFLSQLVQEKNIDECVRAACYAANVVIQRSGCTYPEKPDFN
Method: Substrate analogs were purchased from Sigma-Aldrich (www.sigmaaldrich.com). […] In this assay, PK converts ADP produced by ADK and phosphoenolpyruvate (PEP) to pyruvate. Subsequently, LDH then converts pyruvate to lactate using the coenzyme NADH, with the conversion monitored at 340 nm. The reaction was conducted in 50 mM Tris–HCl buffer at pH 7.5, containing 50 mM KCl, 6 mM MgCl2, 300 µM PEP, 200 µM NADH, 10 mM ATP, 2 U of PK, and 2.5 U of LDH, using various nucleoside substrates. Kinetic constants were determined using GraphPad Prism 8.0 software (www.graphpad.com). Each measurement was performed six times using repetitive purified enzymes. […] The reaction mixture comprised 50 mM Tris–HCl pH 7.5, 5 mM MgCl2, 0.5 mM DTT, 30 mM NaF, 5 mM ATP, 40 µM substrate, and 2–150 ng of purified ADK, depending on the isoform. The reaction was incubated at 30 °C for up to 1 h.

PpADK1 [2] = molecular target: T2, PpADK1 (Physcomitrium patens, UniProt O49923); experiment: ADK activity, coupled reaction with PK and LDH; type: biochemical, Physcomitrella patens; settings: 100 µM substrate, 10 mM ATP, pH 7.5, 30 °C
T2 construct: made in house; host or cells: E. coli T7 Express Iq
T2 sequence (O49923 whole entry): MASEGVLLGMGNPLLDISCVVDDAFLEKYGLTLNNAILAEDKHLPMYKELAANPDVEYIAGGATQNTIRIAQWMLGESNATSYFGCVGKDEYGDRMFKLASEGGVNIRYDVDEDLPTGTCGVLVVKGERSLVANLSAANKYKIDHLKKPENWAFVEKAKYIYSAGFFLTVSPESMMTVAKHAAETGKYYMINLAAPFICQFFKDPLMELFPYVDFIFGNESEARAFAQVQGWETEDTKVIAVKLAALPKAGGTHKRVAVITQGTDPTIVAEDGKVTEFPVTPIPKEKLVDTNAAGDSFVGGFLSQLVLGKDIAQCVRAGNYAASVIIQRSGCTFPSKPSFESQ
Method: as §1

ZmADK2 [3] = molecular target: T1, ZmADK2; experiment: Binding affinity by microscale thermophoresis (MST); settings: for Kd: MST
Method: (§2) The microscale thermophoresis (MST) method was used to determine the binding affinity of various ribosides for ZmADK2 and PpADK1. Proteins were fluorescently labeled with RED-tris-NTA dye (www.nanotemper-technologies.com) using a 1:1 dye/protein molar ratio. The labeled protein was adjusted to 100–300 nM in 50 mM HEPES buffer pH 7.5, 1 mM MgCl2, and 0.2% Tween. Measurements were performed in premium capillaries on a Monolith NT.115 instrument at 30 °C with 5 s/30 s/5 s laser off/on/off times, respectively, with continuous sample fluorescence recording. Thermal stability was measured by nano-differential scanning fluorimetry on a Prometheus NT.48 instrument (www.nanotemper-technologies.com) in various buffers covering a pH (7.0–9.5) and temperature range (25–95 °C), with a heating rate of 1 °C min^–1, and using NT melting control software. Protein unfolding was measured by detecting the temperature-induced change in tryptophan fluorescence intensity at emission wavelengths of 330±5 nm and 350±5 nm. The melting temperature (Tm) was deduced from the maximum of the first derivative of the fluorescence ratios F350/F330.

rabbit ADK = system: rabbit ADK; design: method as in Miller et al., 1979a; settings: ref Miller et al., 1979a; cited from earlier work
PpADK1 [4] = molecular target: T2, PpADK1; experiment: Binding affinity by microscale thermophoresis (MST); design: species or system Physcomitrella patens
Method: as §2

[5] = 50 mM HEPES pH 7.5, 1 mM MgCl2, first or only binding event, read-out: KD
[6] = KD, 50 mM HEPES pH 7.5, 1 mM MgCl2, first or only binding event
[7] = second binding event (ATP site), read-out: second (higher) KD value

PpADK2, sequence (A9RF27 entry or part of it): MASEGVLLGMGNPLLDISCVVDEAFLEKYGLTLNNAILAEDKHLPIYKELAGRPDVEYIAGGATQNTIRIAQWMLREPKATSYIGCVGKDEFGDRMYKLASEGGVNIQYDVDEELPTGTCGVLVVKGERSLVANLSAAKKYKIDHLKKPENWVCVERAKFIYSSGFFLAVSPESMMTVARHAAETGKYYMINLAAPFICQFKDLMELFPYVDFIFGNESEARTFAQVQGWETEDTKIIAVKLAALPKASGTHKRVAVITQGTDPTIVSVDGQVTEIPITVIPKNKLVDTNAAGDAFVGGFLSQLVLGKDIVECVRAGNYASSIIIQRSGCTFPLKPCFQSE

CC(C)CNc1ncnc2c1ncn2[C@@H]1O[C@H](CO)[C@@H](O)[C@H]1O [N ^6-IsobutylAdo]
Specific activity (PpADK2): 0.75±0.08 nmol s^–1 mg^–1
Specific activity (ZmADK1): 2.1±0.4 nmol s^–1 mg^–1
Specific activity (ZmADK2 [1]): 4.2±0.6 nmol s^–1 mg^–1
Km (ZmADK2 [1]): 70.4 ± 8.9 µM
kcat (ZmADK2 [1]): 0.21±0.01 s^–1
Specific activity (ZmADK3): 4.8±0.5 nmol s^–1 mg^–1
Specific activity (PpADK1 [2]): 0.90±0.06 nmol s^–1 mg^–1
Kd (ZmADK2 [3]; [5]): 45.9 ± 9.3 µM

Nc1ncnc2c1ncn2[C@@H]1O[C@H](CO)[C@@H](O)[C@@H]1O [AraA, Adenine arabinoside]
Kd (ZmADK2 [3]; [6]): > 500 µM

C/C(=C\CNc1ncnc2c1ncn2[C@@H]1O[C@H](CO)[C@@H](O)[C@H]1O)CO [ZR]
Km (rabbit ADK): 20 µM
activity compared with Ado (rabbit ADK): 6.3%

Nc1ncnc2c1ncn2C1OC(COP(=O)(O)O)C(O)C1O (centres unmarked) [AMP]
Kd (ZmADK2 [3]; [6]): 247 ± 71 µM
Kd (ZmADK2 [3]; second KD value, KD(2), second binding event (ATP site)): ~8000 µM and 8300 µM
Kd (ZmADK2 [3]; second KD value, second binding event (ATP site)): 8300 ± 2070 µM
Kd (PpADK1 [4]; [5]): 121 µM
Kd (PpADK1 [4]; [7]): 8300 µM

Nc1ncnc2c1ncn2C1CC(O)C(CO)O1 (centres unmarked) [2′-DeoxyAdo]
Km (ZmADK2 [1]): 506 ± 39 µM
kcat (ZmADK2 [1]): 0.46±0.02 s^–1
Km (ZmADK2 [1]; listed as 2′-deoxyAdo): ~500 µM
Kd (ZmADK2 [3]; 50 mM HEPES pH 7.5, 1 mM MgCl2, first or only binding event, listed as 2′-deoxyAdo, read-out: KD): ~500 µM
Kd (ZmADK2 [3]; [5]): 505 ± 94 µM
weaker affinity compared with Ado (ZmADK2 [3]; ratio of KD values): ~ 1200 fold
Km (rabbit ADK): 575 µM

O=c1[nH]c(=O)c2ncn([C@@H]3O[C@H](CO)[C@@H](O)[C@H]3O)c2[nH]1 [Xanthosine]
Kd (ZmADK2 [3]; [6]): 166 ± 77 µM

Nc1ncnc2c1ncn2[C@@H]1O[C@H](CO)C[C@H]1O [3′-DeoxyAdo, cordycepin]
Kd (ZmADK2 [3]; [6]): 175 ± 9 µM
Km (rabbit ADK): 254 µM

Nc1ncnc2c1ncn2[C@@H]1O[C@H](COP(=O)(O)OP(=O)(O)OP(=O)(O)OP(=O)(O)OP(=O)(O)OC[C@H]2O[C@@H](n3cnc4c(N)ncnc43)[C@H](O)[C@@H]2O)[C@@H](O)[C@H]1O [AP5A, diadenosine pentaphosphate]
Kd (ZmADK2 [3]; [5]): 14.5 ± 9.2 µM
Kd (ZmADK2 [3]; second binding event (ATP site), read-out: second KD value): 949 ± 46 µM
Kd (PpADK1 [4]; [5]): 8.1 ± 1.1 µM
Kd (PpADK1 [4]; [7]): 630 ± 120 µM

OC[C@H]1O[C@@H](n2cnc3c(NCc4ccccc4)ncnc32)[C@H](O)[C@@H]1O [BAPR, 6-benzylaminopurine riboside]
Specific activity (PpADK2): 0.89±0.07 nmol s^–1 mg^–1
Specific activity (ZmADK1): 3.3±0.2 nmol s^–1 mg^–1
Specific activity (ZmADK2 [1]): 5.1±0.6 nmol s^–1 mg^–1
Specific activity (ZmADK3): 5.3±0.4 nmol s^–1 mg^–1
Specific activity (PpADK1 [2]): 0.84±0.04 nmol s^–1 mg^–1
Km (rabbit ADK): 12 µM
activity compared with Ado (rabbit ADK): 29%

Nc1ncnc2c1ncn2[C@@H]1O[C@H](COP(=O)(O)OP(=O)(O)O)[C@@H](O)[C@H]1O [ADP]
Kd (ZmADK2 [3]; 50 mM HEPES pH 7.5, 1 mM MgCl2, read-out: KD): 10300 ± 1200 µM
